Results reported in ChEMBL document CHEMBL1201862, “PubChem BioAssay data set” (2004).
Active and inactive are the calls of the source.

Key:
[1] = Late stage results from the probe development effort to identify inhibitors of the protein methylesterase PME-1: Luminescence-based counterscreen assay to identify cytotoxic compounds.; format: functional
[2] = biological target: Acylamino-acid-releasing enzyme (Homo sapiens, UniProt P13798); experiment: endogenous PME-1 and serine hydrolase inhibition – cell lysate, mouse brain cytosol, FP-rhodamine, gel ABPP, selectivity assay for PME-1 inhibitor project, dose response, panel member APEH Assay Panel member description: Inhibition of N-acylaminoacyl-peptide hydrolase (APEH) (anti-target) (AID 2366)
Chain of Acylamino-acid-releasing enzyme (P13798 whole entry): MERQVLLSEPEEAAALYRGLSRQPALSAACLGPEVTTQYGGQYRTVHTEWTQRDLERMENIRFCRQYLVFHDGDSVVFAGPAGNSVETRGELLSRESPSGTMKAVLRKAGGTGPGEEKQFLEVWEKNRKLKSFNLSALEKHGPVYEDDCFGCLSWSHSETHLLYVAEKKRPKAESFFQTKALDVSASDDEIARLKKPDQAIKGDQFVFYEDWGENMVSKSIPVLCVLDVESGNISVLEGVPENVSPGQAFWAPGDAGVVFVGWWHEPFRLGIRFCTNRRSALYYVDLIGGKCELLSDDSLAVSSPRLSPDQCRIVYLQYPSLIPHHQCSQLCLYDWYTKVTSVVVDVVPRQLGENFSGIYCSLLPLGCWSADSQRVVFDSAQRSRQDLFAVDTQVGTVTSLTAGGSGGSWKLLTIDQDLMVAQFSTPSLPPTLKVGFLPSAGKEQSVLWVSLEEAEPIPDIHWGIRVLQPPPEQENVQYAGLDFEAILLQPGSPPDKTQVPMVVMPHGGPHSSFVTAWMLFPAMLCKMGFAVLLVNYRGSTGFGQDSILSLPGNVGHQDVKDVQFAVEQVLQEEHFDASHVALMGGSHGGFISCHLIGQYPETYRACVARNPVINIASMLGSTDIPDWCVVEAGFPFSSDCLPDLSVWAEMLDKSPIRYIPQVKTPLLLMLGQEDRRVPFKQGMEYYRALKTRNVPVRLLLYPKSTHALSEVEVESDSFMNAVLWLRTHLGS

[3] = biological target: Neurotensin receptor type 1 (Homo sapiens, UniProt P30989); format: functional;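 further: Image-based confirmatory dose-response assay measuring agonist activity at NTR1; NTR1-expressing U2OS osteosarcoma cells imaged for beta-arrestin GFP spot formation; agonist potency where compounds increase beta-arrestin recruitment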
[4] = system: Streptococcus sp. 'group A'; experiment: Streptococcus pyogenes SK(-)GAS viability under kanamycin – luminescence, BacTiterGlo, confirmation, counter-screen for streptokinase expression inhibitor project, dose response (AID 1900); format: functional, organism-based
[5] = microbe, parasite or virus in culture; format: functional; settings: Mycobacterium tuberculosis
[6] = system: Streptococcus; experiment: GAS UMAA2166 growth inhibition – luminescence, BacTiterGlo, counter-screen for streptokinase expression inhibitor project, dose response (AID 1915); format: functional, organism-based;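 further: potency for reduction of bacterial viability or growth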
[7] = biological target: NACHT, LRR and PYD domains-containing protein 3 (Homo sapiens, UniProt Q96P20); experiment: NALP3 inhibitors in yeast, dose response, luminescent (AID 488799); format: functional
[8] = Vero E6 cell cytotoxicity, dose response, cytotoxicity control for non-replicating M. tuberculosis project, secondary assay (AID 492998); format: functional, VeroE6; settings: Vero C1008
[9] = cells; format: functional
[10] = biological target: T1, Estrogen receptor (Homo sapiens, UniProt P03372);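 further: potency for inhibiting coactivator peptide recruitment to the receptor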
T1 sequence (P03372 whole entry): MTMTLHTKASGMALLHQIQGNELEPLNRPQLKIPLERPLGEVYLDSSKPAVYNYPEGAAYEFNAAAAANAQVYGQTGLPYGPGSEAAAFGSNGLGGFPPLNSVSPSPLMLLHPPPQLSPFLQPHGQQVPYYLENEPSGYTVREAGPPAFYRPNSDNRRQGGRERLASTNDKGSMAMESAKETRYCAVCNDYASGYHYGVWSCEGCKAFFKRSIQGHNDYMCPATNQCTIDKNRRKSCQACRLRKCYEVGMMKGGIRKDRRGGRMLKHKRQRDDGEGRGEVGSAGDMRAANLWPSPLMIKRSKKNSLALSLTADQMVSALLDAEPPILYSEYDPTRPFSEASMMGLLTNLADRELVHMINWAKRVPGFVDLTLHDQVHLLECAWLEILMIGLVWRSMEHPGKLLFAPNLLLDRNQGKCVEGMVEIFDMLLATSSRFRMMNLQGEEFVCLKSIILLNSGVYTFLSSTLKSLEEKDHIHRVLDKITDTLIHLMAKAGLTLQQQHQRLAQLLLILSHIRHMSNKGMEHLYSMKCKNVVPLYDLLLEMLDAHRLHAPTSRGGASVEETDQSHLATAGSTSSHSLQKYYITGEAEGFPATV

[11] = biological target: Alkaline phosphatase, placental type (Homo sapiens, UniProt P05187); experiment: human placental alkaline phosphatase inhibition – biochemical, luminescence, confirmation (AID 1512); format: functional
Chain of Alkaline phosphatase, placental type (P05187 whole entry): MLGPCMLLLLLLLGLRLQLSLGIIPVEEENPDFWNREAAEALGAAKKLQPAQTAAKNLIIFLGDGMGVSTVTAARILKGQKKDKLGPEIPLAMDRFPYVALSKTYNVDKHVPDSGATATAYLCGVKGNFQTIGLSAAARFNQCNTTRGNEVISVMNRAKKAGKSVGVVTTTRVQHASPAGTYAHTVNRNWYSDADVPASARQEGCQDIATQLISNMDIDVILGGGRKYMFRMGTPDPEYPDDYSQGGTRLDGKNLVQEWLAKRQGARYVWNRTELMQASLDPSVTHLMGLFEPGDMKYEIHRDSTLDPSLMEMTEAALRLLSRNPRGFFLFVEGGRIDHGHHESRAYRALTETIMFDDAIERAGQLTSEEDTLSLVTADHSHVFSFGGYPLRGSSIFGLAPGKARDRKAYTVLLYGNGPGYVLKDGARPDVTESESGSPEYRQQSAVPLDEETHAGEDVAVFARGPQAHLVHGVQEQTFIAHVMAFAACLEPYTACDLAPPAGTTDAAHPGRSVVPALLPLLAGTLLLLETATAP

[12] = biological target: T2, Alkaline phosphatase, tissue-nonspecific isozyme (Homo sapiens, UniProt P05186); experiment: potency against alkaline phosphatase TNAP – biochemical, luminescent, dose response, SAR follow-up (AID 1056)
T2 sequence (P05186 whole entry): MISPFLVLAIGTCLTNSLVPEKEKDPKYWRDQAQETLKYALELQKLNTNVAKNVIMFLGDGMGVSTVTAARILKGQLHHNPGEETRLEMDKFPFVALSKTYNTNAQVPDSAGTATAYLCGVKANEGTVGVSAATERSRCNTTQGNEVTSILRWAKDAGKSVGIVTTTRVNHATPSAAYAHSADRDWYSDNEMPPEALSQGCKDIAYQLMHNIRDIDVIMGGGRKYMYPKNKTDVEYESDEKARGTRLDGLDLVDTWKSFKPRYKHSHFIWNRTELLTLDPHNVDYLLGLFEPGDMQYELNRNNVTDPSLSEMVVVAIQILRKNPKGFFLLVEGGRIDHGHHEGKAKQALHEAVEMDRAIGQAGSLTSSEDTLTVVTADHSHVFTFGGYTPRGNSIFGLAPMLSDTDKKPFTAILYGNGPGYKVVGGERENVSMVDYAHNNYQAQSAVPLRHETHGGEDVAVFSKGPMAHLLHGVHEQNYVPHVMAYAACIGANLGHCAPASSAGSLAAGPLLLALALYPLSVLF

[13] = biological target: T3, Delta-type opioid receptor (Homo sapiens, UniProt P41143); experiment: HTS Image-Based Screen for Antagonists of the DOR Receptor. [Related pubchem assays (depositor defined):AID1777, AID1785, AID1786, AID2133]; format: functional
T3 sequence (P41143 whole entry): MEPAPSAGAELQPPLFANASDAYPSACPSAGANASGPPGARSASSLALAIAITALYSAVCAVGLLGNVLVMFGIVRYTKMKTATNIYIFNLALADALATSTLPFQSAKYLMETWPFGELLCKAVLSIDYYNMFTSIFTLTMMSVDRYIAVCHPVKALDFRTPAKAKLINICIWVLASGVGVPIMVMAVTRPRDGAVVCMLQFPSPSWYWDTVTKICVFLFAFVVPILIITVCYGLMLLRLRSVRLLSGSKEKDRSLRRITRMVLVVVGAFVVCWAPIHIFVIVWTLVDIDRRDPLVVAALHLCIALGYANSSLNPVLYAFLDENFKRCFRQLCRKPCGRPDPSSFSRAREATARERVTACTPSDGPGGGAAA

[14] = biological target: T4, Mu-type opioid receptor (Homo sapiens, UniProt P35372); experiment: HTS Image-Based Screen for Agonists of the MOR Receptor. [Related pubchem assays (depositor defined):AID1777, AID1785, AID1786, AID2133]; format: functional
T4 sequence (P35372 whole entry): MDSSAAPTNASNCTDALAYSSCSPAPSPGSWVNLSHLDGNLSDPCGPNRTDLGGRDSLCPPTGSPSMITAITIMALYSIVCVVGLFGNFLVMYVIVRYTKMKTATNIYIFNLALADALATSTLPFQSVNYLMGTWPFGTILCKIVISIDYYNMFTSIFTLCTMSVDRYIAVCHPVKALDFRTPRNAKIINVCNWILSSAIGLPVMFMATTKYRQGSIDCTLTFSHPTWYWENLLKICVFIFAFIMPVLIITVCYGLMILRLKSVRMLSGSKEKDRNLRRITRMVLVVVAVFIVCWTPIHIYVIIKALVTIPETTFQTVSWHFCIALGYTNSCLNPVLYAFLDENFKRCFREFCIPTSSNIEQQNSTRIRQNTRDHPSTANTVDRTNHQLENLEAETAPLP

[15] = biological target: T3, Delta-type opioid receptor; experiment: HTS Image-Based Screen for Agonists of the DOR Receptor. [Related pubchem assays (depositor defined):AID1777, AID1786, AID2133]; format: functional
[16] = biological target: T5, Kappa-type opioid receptor (Homo sapiens, UniProt P41145); format: functional
T5 sequence (P41145 whole entry): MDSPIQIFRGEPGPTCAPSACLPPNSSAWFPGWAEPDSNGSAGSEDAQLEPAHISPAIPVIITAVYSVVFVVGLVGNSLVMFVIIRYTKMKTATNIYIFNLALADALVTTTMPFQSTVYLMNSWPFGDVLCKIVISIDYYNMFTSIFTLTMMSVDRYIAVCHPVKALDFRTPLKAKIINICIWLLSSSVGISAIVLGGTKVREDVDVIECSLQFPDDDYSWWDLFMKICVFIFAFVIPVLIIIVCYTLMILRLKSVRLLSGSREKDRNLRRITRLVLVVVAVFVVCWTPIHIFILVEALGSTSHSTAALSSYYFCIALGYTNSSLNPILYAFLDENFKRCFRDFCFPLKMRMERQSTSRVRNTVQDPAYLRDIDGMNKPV

[17] = biological target: T5, Kappa-type opioid receptor; format: functional; remark: listed apart in the source
[18] = biological target: T5, Kappa-type opioid receptor; experiment: SAR analysis of small molecule agonists of the kappa opioid receptor via a luminescent beta-arrestin assay. [Related pubchem assays (depositor defined):AID1777, AID1786, AID1966, AID2133, AID2136, AID2348, AID2352, AID2357, AID2359, AID2370, AID2420, AID2478, AID2491, AID2492, AID2493, AID2497, AID2498, AID2500, AID449737, AID488822, AID488842]; format: functional
[19] = biological target: T4, Mu-type opioid receptor; experiment: mu opioid receptor activators, image-based, SAR follow-up (AID 2352); format: functional
[20] = biological target: T3, Delta-type opioid receptor; experiment: DOR agonists, SAR follow-up, image-based (AID 2370); format: functional
[21] = biological target: T5, Kappa-type opioid receptor; experiment: kappa opioid receptor blockers, image-based, SAR follow-up (AID 2348); format: functional
[22] = biological target: T4, Mu-type opioid receptor; experiment: mu opioid receptor blockers – image-based, SAR follow-up (AID 2420); format: functional;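 further: compounds added before stimulation of receptor with agonist DAMGO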
[23] = biological target: T5, Kappa-type opioid receptor; experiment: kappa opioid receptor activation potency – imaging, image-based, SAR follow-up (AID 2359); format: functional
[24] = biological target: T3, Delta-type opioid receptor; experiment: delta opioid receptor blockers – image-based, SAR follow-up (AID 2357); format: functional
[25] = biological target: Voltage-dependent T-type calcium channel subunit alpha-1H (Homo sapiens, UniProt O95180); format: functional;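 further: channel activity triggered by adding a high calcium stimulation buffer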
Chain of Voltage-dependent T-type calcium channel subunit alpha-1H (O95180 whole entry): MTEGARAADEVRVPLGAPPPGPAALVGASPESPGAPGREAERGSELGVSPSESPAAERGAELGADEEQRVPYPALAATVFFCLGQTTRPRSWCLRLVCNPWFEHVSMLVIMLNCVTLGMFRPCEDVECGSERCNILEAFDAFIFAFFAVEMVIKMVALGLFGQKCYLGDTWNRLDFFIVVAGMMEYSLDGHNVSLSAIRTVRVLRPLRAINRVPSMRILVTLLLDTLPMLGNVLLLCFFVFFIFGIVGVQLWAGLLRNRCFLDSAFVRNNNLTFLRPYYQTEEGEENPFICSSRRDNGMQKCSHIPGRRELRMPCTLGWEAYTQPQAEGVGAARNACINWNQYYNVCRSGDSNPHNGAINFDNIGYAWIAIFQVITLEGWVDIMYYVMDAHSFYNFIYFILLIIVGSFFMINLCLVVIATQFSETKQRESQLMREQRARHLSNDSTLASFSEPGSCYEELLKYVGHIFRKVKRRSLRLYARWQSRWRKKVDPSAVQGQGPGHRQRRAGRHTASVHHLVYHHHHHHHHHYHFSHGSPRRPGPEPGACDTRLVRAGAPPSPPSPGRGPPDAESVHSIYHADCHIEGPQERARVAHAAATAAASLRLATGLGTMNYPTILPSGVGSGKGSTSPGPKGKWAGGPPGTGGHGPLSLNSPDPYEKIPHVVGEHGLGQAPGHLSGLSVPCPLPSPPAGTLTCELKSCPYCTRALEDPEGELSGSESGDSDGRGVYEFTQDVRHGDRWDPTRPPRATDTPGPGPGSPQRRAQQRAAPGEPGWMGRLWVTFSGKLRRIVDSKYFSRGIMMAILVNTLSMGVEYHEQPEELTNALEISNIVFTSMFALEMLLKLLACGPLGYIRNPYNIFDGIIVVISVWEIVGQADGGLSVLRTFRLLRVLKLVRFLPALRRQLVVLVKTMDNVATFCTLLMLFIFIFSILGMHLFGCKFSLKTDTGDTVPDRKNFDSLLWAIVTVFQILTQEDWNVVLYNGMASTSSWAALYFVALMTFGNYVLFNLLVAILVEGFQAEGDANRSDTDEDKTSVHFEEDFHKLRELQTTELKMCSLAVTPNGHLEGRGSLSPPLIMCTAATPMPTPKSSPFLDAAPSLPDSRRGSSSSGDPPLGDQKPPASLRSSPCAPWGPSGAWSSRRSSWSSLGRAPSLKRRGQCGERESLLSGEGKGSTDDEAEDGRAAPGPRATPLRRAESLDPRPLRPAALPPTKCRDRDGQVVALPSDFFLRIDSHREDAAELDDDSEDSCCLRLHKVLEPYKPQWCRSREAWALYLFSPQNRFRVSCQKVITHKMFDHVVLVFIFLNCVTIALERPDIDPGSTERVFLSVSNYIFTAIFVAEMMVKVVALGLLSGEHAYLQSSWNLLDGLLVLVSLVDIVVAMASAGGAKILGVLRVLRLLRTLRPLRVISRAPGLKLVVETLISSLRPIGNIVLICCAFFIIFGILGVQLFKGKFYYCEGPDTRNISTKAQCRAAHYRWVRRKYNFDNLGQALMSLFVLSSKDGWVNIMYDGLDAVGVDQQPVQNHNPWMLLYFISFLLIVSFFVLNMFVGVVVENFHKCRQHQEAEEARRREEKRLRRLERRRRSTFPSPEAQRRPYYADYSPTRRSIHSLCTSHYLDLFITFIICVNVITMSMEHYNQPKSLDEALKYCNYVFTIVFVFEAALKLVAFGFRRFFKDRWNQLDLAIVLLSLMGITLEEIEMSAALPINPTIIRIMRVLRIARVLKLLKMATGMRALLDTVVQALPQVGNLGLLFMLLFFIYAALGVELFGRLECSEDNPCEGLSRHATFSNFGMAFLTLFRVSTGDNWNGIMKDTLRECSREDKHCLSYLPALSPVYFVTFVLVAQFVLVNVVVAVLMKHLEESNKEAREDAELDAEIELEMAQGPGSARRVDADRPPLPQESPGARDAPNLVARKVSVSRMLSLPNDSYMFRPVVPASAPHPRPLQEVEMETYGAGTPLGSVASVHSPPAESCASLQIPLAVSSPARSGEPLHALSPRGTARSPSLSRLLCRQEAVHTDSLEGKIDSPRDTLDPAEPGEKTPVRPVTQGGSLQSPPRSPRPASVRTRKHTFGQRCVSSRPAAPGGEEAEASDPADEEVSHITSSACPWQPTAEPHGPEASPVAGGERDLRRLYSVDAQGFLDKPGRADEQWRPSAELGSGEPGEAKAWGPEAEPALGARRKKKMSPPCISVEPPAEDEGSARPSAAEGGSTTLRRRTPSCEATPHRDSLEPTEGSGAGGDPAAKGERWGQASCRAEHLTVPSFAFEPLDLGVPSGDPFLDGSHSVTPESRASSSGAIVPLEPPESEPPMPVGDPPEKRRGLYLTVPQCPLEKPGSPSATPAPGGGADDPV

Compound: N#C/C(=C\c1cccn1S(=O)(=O)c1cccc(C#N)c1)S(=O)(=O)c1ccc(F)cc1
- CC50 [1]: 100 µM (active)
- IC50 [2]: > 50 µM (inactive)

Compound: CC(C)Cn1c(N)c(C(=O)CSc2cc(Cl)ccc2Cl)c(=O)n(C)c1=O
- EC50 [3]: 16.5 µM (active)

Compound: O=c1cc(-c2ccccc2Cl)oc2ccc([N+](=O)[O-])c(O)c12
- EC50 [4]: 4.58 µM (active)
- CC50 [5]: 26.2 µM (active)
- EC50 [6]: 8.09 µM (active)
- IC50 [7]: 9.17 µM (active)
- CC50 [8]: > 20 µM (active)
- IC50 [9]: 12.1 µM (active)

Compound: CNc1nnc(-c2cc3cc(Cl)ccc3oc2=O)s1
- IC50 [10]: 11.1 µM (active)
- IC50 [11]: > 100 µM (inactive)
- IC50 [12]: > 100 µM (inactive)

Compound: O=C(c1ccccn1)N(Cc1ccco1)C1(C(=O)NC2CCCCC2)CCCCC1
- IC50 [13]: > 32 µM (inactive)
- EC50 [14]: > 32 µM (inactive)
- EC50 [15]: > 32 µM (inactive)
- EC50 [16]: < 0.5 µM
- EC50 [17]: 0.22 µM
- EC50 [18]: 0.821 µM (active)
- EC50 [19]: > 32 µM (inactive)
- EC50 [20]: > 32 µM (inactive)
- IC50 [21]: > 32 µM (inactive)
- IC50 [22]: > 32 µM (inactive)
- EC50 [23]: 0.125 µM (active)
- IC50 [24]: > 32 µM (inactive)

Compound: CCN(CC)S(=O)(=O)c1cccc(C(=O)N[C@H](C(=O)OCC(=O)Nc2ccccc2)C(C)C)c1
- EC50 [25]: 0.558 µM (active)
